One block for each molecule: values may come before it.
Key:
A549 [1] = experiment: Effective concentration for inhibition of interleukin-6 in human A549 lung carcinoma cell line using 67% radiolabeled Dexamethasone; format: functional, cell-based
Mus musculus [2] = species: Mus musculus; experiment: Effective concentration required for inhibition of interleukin-6 in mouse thioglycolate-elicited peritoneal exudate cell line using 85% radiolabeled Dexamethasone; format: functional
Glucocorticoid receptor [3] = molecular target: T1, Glucocorticoid receptor (Homo sapiens, UniProt P04150); experiment: Inhibition of human glucocorticoid receptor alpha isoform
T1 sequence (P04150 whole entry): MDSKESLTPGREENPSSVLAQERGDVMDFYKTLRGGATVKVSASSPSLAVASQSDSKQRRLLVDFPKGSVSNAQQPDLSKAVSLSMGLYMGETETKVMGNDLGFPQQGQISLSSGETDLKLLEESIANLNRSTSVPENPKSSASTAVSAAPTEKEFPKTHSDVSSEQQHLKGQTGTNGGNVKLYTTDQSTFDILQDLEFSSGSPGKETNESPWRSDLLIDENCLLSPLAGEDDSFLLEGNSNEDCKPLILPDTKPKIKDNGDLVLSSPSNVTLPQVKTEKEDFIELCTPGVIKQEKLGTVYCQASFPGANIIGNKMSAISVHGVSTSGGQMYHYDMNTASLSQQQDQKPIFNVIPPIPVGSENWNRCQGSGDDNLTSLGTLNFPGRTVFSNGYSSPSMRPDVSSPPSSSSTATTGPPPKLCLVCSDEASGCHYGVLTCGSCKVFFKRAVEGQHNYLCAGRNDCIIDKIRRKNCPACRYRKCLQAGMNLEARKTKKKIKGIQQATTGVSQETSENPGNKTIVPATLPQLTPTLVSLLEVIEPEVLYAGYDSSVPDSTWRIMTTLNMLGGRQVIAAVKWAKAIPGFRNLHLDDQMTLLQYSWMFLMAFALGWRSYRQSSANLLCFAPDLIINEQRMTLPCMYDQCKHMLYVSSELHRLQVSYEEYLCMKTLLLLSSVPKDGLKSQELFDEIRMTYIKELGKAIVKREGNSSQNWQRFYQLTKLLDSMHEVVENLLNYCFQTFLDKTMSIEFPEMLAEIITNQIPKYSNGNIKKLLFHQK

[4] = Effective concentration required for induction of glutamine synthetase in human skeletal muscle cells using 0% radiolabeled Dexamethasone; format: functional
Mus musculus [5] = species: Mus musculus; experiment: Effective concentration required for inhibition of interleukin-6 in mouse thioglycolate-elicited peritoneal exudate cell line using 70% radiolabeled Dexamethasone; format: functional
A549 [6] = experiment: Effective concentration for inhibition of interleukin-6 in human A549 lung carcinoma cell line using 64% radiolabeled Dexamethasone; format: functional, cell-based
Mus musculus [7] = species: Mus musculus; experiment: Effective concentration required for inhibition of interleukin-6 in mouse thioglycolate-elicited peritoneal exudate cell line using 64% radiolabeled Dexamethasone; format: functional
A549 [8] = experiment: Effective concentration for inhibition of interleukin-6 in human A549 lung carcinoma cell line using 46% radiolabeled Dexamethasone; format: functional, cell-based
Estrogen receptor = molecular target: T2, Estrogen receptor (Homo sapiens, UniProt P03372); experiment: Binding affinity for human estrogen receptor alpha
T2 sequence (P03372 whole entry): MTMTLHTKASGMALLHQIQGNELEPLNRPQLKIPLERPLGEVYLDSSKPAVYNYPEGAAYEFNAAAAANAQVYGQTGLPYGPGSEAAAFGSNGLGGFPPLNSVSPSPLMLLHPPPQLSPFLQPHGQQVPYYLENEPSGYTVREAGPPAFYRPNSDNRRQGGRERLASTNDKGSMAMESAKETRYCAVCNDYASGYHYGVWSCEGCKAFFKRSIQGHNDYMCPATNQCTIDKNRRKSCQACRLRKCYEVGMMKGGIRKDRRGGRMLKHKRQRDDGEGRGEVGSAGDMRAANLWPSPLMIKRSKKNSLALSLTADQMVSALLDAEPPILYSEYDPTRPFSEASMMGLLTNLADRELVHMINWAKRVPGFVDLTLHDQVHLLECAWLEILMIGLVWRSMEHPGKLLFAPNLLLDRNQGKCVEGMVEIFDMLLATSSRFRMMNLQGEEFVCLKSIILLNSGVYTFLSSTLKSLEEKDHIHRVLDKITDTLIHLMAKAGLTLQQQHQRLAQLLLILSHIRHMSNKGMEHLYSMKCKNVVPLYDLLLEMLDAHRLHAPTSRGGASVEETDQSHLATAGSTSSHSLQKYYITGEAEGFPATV

Mus musculus [9] = experiment: Inhibition of LPS induced TNF-alpha secretion in mouse at an oral dose of 30 mg/kg relative to that produced by Dexamethasone at a dose of 0.3 mg/kg; format: functional
Glucocorticoid receptor [10] = molecular target: T1, Glucocorticoid receptor; experiment: Binding affinity for human glucocorticoid receptor
Estrogen receptor beta = Estrogen receptor beta (Homo sapiens, UniProt Q92731); experiment: Binding affinity for human estrogen receptor beta
Sequence of Estrogen receptor beta (Q92731 whole entry): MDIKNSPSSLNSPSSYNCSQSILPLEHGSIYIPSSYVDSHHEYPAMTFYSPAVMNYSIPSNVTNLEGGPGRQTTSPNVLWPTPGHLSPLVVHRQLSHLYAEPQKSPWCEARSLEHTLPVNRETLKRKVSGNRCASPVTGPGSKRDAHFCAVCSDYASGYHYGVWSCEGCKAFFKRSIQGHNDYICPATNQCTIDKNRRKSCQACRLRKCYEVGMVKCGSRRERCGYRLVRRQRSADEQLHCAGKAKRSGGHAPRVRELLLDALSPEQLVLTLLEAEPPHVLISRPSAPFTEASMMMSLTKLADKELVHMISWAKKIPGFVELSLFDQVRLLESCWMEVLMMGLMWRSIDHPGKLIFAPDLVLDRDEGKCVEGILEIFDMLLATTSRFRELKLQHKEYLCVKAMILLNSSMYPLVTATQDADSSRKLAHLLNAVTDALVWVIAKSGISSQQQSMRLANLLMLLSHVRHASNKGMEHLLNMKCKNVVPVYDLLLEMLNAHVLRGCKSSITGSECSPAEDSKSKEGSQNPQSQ

[11] = Volume of distribution in mouse at 2 mg/kg IV administration; format: ADME, organism-based; parameters: dose 2 mg/kg, route intravenous; details: in vivo, read-out: Volume of distribution
[12] = Bioavailability in mouse (dose 10 mg/kg p.o.); format: ADME, organism-based; details: in vivo, po
[13] = molecular target: T3, Mineralocorticoid receptor (Rattus norvegicus, UniProt P22199); experiment: Binding affinity for rat mineralocorticoid receptor
T3 sequence (P22199 whole entry): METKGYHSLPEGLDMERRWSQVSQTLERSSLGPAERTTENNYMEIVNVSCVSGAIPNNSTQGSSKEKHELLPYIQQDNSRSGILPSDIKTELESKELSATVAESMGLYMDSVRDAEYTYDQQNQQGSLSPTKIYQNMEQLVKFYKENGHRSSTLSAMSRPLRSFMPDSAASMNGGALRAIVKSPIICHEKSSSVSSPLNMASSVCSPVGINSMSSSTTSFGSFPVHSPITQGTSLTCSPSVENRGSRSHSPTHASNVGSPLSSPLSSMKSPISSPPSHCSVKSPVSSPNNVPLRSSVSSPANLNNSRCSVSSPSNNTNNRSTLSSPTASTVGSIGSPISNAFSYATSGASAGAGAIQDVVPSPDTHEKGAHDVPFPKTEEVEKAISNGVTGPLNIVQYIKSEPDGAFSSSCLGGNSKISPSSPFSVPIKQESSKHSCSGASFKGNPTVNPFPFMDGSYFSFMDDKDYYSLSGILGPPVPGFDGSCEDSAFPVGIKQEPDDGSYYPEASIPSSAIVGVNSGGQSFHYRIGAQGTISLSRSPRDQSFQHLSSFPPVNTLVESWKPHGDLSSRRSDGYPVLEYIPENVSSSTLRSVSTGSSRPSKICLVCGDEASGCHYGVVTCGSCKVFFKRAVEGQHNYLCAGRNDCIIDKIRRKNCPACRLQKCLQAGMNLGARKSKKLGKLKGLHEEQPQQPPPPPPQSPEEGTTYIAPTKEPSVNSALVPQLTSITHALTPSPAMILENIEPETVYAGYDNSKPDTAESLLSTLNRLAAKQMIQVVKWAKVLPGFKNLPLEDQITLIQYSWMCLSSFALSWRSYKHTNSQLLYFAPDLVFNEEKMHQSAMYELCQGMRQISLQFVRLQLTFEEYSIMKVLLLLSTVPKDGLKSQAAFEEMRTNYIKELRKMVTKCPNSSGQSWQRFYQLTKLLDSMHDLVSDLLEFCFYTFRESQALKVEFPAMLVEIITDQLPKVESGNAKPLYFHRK

Mus musculus [14] = species: Mus musculus; experiment: Effective concentration required for interleukin-6 transrepression in peritoneal exudate cells of C57B1/6 mouse using 69% Dexamethasone; format: functional, cell-based
A549 [15] = experiment: Effective concentration for inhibition of interleukin-6 in human A549 lung carcinoma cell line using 60% radiolabeled Dexamethasone; format: functional, cell-based
[16] = Half life time in mouse at 2 mg/kg IV administration; format: ADME, organism-based; parameters: dose 2 mg/kg, route intravenous; details: in vivo
Mus musculus [17] = species: Mus musculus; experiment: Effective concentration required for inhibition of interleukin-6 in mouse thioglycolate-elicited peritoneal exudate cell line using 69% radiolabeled Dexamethasone; format: functional
[18] = Clearance data in mouse at 2 mg/kg IV administration; format: ADME, organism-based; parameters: dose 2 mg/kg, route intravenous; details: in vivo
[19] = Effective concentration required for induction of glutamine synthetase in human skeletal muscle cells using 45% radiolabeled Dexamethasone; format: functional
A549 [20] = experiment: Effective concentration required for inhibition of interleukin-6 in human A549 lung carcinoma cell line using 93% radiolabeled Dexamethasone; format: functional, cell-based
HepG2 = experiment: Effective concentration required for induction of tyrosine aminotransferase in human HepG2 cells using 74% radiolabeled Dexamethasone; format: functional, cell-based
Mus musculus [21] = species: Mus musculus; experiment: Effective concentration required for inhibition of interleukin-6 in mouse thioglycolate-elicited peritoneal exudate cell line using 111% radiolabeled Dexamethasone; format: functional
Mus musculus [22] = species: Mus musculus; experiment: Effective concentration required for inhibition of interleukin-6 in mouse thioglycolate-elicited peritoneal exudate cell line using 72% radiolabeled Dexamethasone; format: functional
A549 [23] = experiment: Effective concentration for inhibition of interleukin-6 in human A549 lung carcinoma cell line using 58% radiolabeled Dexamethasone; format: functional, cell-based

SMILES: C[C@]12Cc3cnn(-c4ccc(F)cc4)c3C=C1CCC21O[C@H](c2ccccc2)[C@@H](c2ccccc2)O1
EC50 (A549 [1]): 10 nM | EC50 (Mus musculus [2]): 60 nM | IC50 (Glucocorticoid receptor [3]): 10 nM | EC50 [4]: 10 nM

EC50 (Mus musculus [5]): 91 nM | IC50 (Glucocorticoid receptor [3]): 8.5 nM
SMILES: C[C@]12Cc3cnn(-c4ccc(F)cc4)c3C=C1CC[C@]21OC[C@@H](c2ccccc2)O1

EC50 (A549 [6]): 26 nM | EC50 (Mus musculus [7]): 19 nM | IC50 (Glucocorticoid receptor [3]): 3.1 nM
SMILES: C[C@@H]1C[C@H](C)O[C@@]2(CCC3=Cc4c(cnn4-c4ccc(F)cc4)C[C@@]32C)O1

EC50 (A549 [8]): 0.48 nM | IC50 (Glucocorticoid receptor [3]): 18 nM
SMILES: C[C@@H]1CCO[C@@]2(CCC3=Cc4c(cnn4-c4ccc(F)cc4)C[C@@]32C)O1

IC50 (Estrogen receptor): > 10 µM | IC50 (Glucocorticoid receptor [10]): 7.1 nM | IC50 (Estrogen receptor beta): > 10 µM | Vd [11]: 27.2 L/kg | bioavailability [12]: 23% | IC50 [13]: > 10 µM | EC50 (Mus musculus [14]): 54 nM | EC50 (A549 [15]): 13 nM | half-life [16]: 180 min | EC50 (Mus musculus [17]): 54 nM | IC50 (Glucocorticoid receptor [3]): 7.1 nM | clearance [18]: 118 mL/min/kg
SMILES: C[C@H]1C[C@H](C)OC2(CCC3=Cc4c(cnn4-c4ccc(F)cc4)C[C@@]32C)O1 (some centres not stated)
Inhibition (Mus musculus [9]): 80.8%

EC50 [19]: 17 nM | EC50 (A549 [20]): 6.5 nM | EC50 (HepG2): 164 nM | EC50 (Mus musculus [21]): 7.6 nM | IC50 (Glucocorticoid receptor [3]): 2.7 nM
SMILES: C/C=C/[C@H]1OC2(CCC3=Cc4c(cnn4-c4ccc(F)cc4)C[C@@]32C)O[C@@H]1/C=C/C

EC50 (Mus musculus [22]): 45 nM | EC50 (A549 [23]): 7.5 nM | IC50 (Glucocorticoid receptor [3]): 8.4 nM
SMILES: C[C@@H]1C[C@@H](C)OC2(CCC3=Cc4c(cnn4-c4ccc(F)cc4)C[C@@]32C)O1 (stereo in doubt; form 1)

From ChEMBL document CHEMBL1139605, “Novel ketal ligands for the glucocorticoid receptor: in vitro and in vivo activity” (Bioorg Med Chem Lett, 2005)
